Test results published in patent publication US20080317863A1, “Pharmaceutical Compositions Useful in the Transmucosal Administration of Drugs” (priority 2005, published 2008).

How the values were obtained:
[1] = Surface area by permeametry; format: physicochemical; details: permeametry with Blaine apparatus; mean of three, SD in parentheses
Protocol: (§1) Particle sizes are shown as median values by weight as measured by laser diffraction analysis (Sympatec Helos […], Germany). […] Surface areas were measured by steady state […] (Johansson et al, Int. […] The results are shown as the mean value from three measurements. The standard deviation is given in parentheses.

[2] = Particle size by laser diffraction analysis; format: physicochemical; details: median by weight, 10% and 90% undersize limits in parentheses
Protocol: as §1

SMILES: O=C([O-])c1ccccc1O.[Na+] [Sodium salicylate, sodium salicylate]
- Surface Area [1]: 1.77 (0.13) m^2/g
- Particle Size [2]: 3.17 (0.8, 10.8) μm
